# According to patent EP4050002A1, “ANTI-PROLIFERATIVE AGENTS” (First Health Pharmaceuticals B.V., priority 2021, dated 2022):
# Like-named read-outs stand apart in the source and are kept apart here.
# Assays:
# [1] = Plasma protein binding (rapid equilibrium dialysis); format: in vitro ADME; conditions: for fraction unbound at 5 h, 10 µM: read-out: % Bound in Plasma ± SD (converted); for recovery at 5 h, 10 µM: read-out: % Recovery ± SD
# Experimental: In vitro evaluation of test compounds for protein binding in plasma was performed using the rapid equilibrium dialysis method. Ready to use PBS, 9.07-10.00 g, (Sigma Aldrich, catalogue code P3813) was dissolved in 1l of MilliQ water and pH was adjusted to 7.4. 10 mM stock of the test compound was prepared in DMSO. 1 mM solution was prepared by diluting 10 mM stock in methanol. 10 µM working stock was prepared in plasma by spiking 3 µl of 1 mM solution into 297 µl of plasma. An aliquot of 200 µl of plasma containing test compound was spiked into donor well (red chamber) of the insert. 350 µl of PBS was spiked into receiver well (white chamber) of the insert. The plate was incubated at 37 °C in thermo-mixer at 400 rpm for 5 hours. The samples were matrix equilibrated with opposite matrix: 25 µl of plasma sample was matched with 25 µl of blank buffer (PBS) and 25 µl of buffer sample was matched with 25 µl of plasma.
# Matrix matched samples were precipitated with 200 µl of acetonitrile containing Telmisartan 100 ng/ml as internal standard. Buffer samples were of phosphate buffer saline pH 7.4 incubated for 5.5 h along with plasma samples. Blank samples were the ones matched with Phosphate buffer Saline pH 7.4 maintained at room temperature.
# Samples were vortexed at 1000 rpm for 5 min and centrifuged at 4000 rpm for 10 min. Supernatant was separated, diluted 2 fold with water and analyzed in LC-MS/MS.
# To control samples were processed immediately after the preparation of plasma working stock solutions. These samples serve as a measure for calculating the percentage recovery from plasma and buffer of test compounds. The percentage of plasma unbound (% Unbound) and bound (% Bound) fractions were calculated by the following equations: %Unbound = (1−((Tc−Fc))/(Tc))∗100 [formula] %Bound = 100−%Unbound [formula] %Recovery = 100∗(Fc + Tc)/(T0) [formula]
# TC = Compound concentration as determined by the calculated concentration on the plasma side of the membrane (donor well); FC = Free compound concentration as determined by the calculated concentration on the buffer side of the membrane (receiver well); T0 = Total compound concentration as determined before dialysis.
# The API400 MS and Agilent 1260 Multi sampler LC were used, with 10 uL injection volumes. Typically, plasma protein binding is determined over ≥ 4 hours at 37°C. Under these conditions chemical and/or enzymatic degradation of compounds can occur. The determination of compound recovery is, therefore, of pivotal importance. A low % recovery can flag a variety of potential problems: • The compound is hydrolytically or metabolically unstable • The compound is highly bound to the rapid equilibrium dialysis device • The compound is poorly soluble
# PBMC = test: Cytotoxicity in primary cells, ATP-based method; format: cell-based, human
# Experimental: The non-specific toxicity of the compounds is evaluated in non-tumor immortalized cells with cell count and / or MTS methods, and in primary Peripheral Blood Mononuclear Cells (PBMC) with the ATP-based method.
# Primary human Peripheral Blood Mononuclear Cells (PBMC) are incubated at 37°C and 5% CO2 for the viability assay with CellTiter Glo 2.0 kit, an ATP-based method (Promega, Catalog number: G9241). 48 h prior to the assay, 2 µg/ml of phytohemagglutinin-A (PHA) are added to PBMC culture and cells are incubated for 48 h at 37°C and 5% CO2. PBMC are centrifuged at 300 G for 10 minutes, then re-suspended in growth medium and plated at density of 6 x 10^4 cells/well. […]
# PBMC incubated with the same amount of DMSO present in the compound dilutions are used as control. After the incubation, 50 µl of cell cultures from each well are transferred in a luminescence plate after vigorous pipetting and 50 µl of CellTiter Glo 2.0 are added in each well, then the plate is incubated in the Glomax Discovery Reader (Promega, Catalog number: GM3000) following the instructions. Relative luminescence units (RLU) calculated in each well is elaborated with GraphPad software: 100% viability is determined as the mean RLU value measured in the wells containing untreated PBMCs. IC50 was calculated by GraphPad Prism 8.0 software.
smiles,measurement,setting,value
CCCCc1cn(-c2ccc(-c3nnc(-c4ccccc4C(F)(F)F)o3)cc2)nn1 [Compound 5],"fraction unbound at 5 h, 10 µM",[1]; Human plasma,0.0022
same,"recovery at 5 h, 10 µM",[1]; Human plasma,79 ± 0.99%
same,"fraction unbound at 5 h, 10 µM",[1]; Mouse plasma,0.0003
same,"recovery at 5 h, 10 µM",[1]; Mouse plasma,83.7 ± 13.4%
same,"fraction unbound at 5 h, 10 µM",[1]; Rat plasma,0.0005
same,"recovery at 5 h, 10 µM",[1]; Rat plasma,63.4 ± 2.74%
same,IC50,"PBMC; Homo sapiens, PBMC, 72 hours of incubation, ATP-based method",200 µM
same,toxicity,PBMC; primary human cells (Table 16),above 100 µM
